Source: patent US20120328569A1, “INHIBITORS OF HEPATITIS C VIRUS NS5B POLYMERASE” (priority 2010, published 2012)

Tested on: HCV genotype 1b replicon
Test: HCV replicon assay, cell ELISA with antibody to replicon-encoded NS3/4A (genotype 1b replicon)
Format: cell-based, hepatitis C virus
Details: Hepatitis C virus, 96 h, read-out: Replicon 1b IC50 (nM), HCV genotype 1b replicon cells, 96 hours incubation, NS3/4A ELISA readout
Description: The HCV NS5B inhibitory activity of the present compounds may be tested using assays known in the art. The HCV NS5B polymerase inhibitors described herein have activities in a genotype 1b replicon assay as described in the Examples. The assay is performed by incubating a replicon harboring cell-line in the presence of inhibitor for a set period of time and measuring the effect of the inhibitor on HCV replicon replication either directly by quantifying replicon RNA level, or indirectly by measuring enzymatic activity of a co-encoded reporter enzyme such as luciferase or β-lactamase. By performing a series of such measurements at different inhibitor concentrations, the effective inhibitory concentration of the inhibitor (EC50 or EC90) is determined. See Jan M. Vrolijk et al., A replicons-based bioassay for the measurement of interferons in patients with chronic hepatitis C, 110 J. VIROLOGICAL METHODS 201 (2003). Such assays may also be run in an automated format for high through-put screening. See Paul Zuck et al., A cell-based β-lactamase reporter gene assay for the identification of inhibitors of hepatitis C virus replication, 334 ANALYTICAL BIOCHEMISTRY 344 (2004).
Measurement of inhibition by compounds was performed using the HCV replicon system. Several different replicons encoding different HCV genotypes or mutations were used. In addition, potency measurements were made using different formats of the replicon assay, including different ways of measurements and different plating formats. See Jan M. Vrolijk et al., A replicons-based bioassay for the measurement of interferons in patients with chronic hepatitis C, 110 J. VIROLOGICAL METHODS 201 (2003); Steven S. Carroll et al., Inhibition of Hepatitis C Virus RNA Replication by 2′-Modified Nucleoside Analogs, 278(14) J. BIOLOGICAL CHEMISTRY 11979 (2003). However, the underlying principles are common to all of these determinations, and are outlined below.
Stable neomycin phosphotransferase encoding replicons-harboring cell lines were used, so all cell lines were maintained under G418 selection prior to the assay. Potency was determined using a cell ELISA assay with an antibody to the replicons encoded NS3/4a protease. See Caterina Trozzi et al., In Vitro Selection and Characterization of Hepatitis C Virus Serine Protease Variants Resistant to an Active-Site Peptide Inhibitor, 77(6) J. Virol. 3669 (2003). To initiate an assay, replicon cells were plated in the presence of a dilution series of test compound in the absence of G418. Typically, the assays were performed in a 96-well plate formate for manual operation, or a 384-well plate format for automated assay. Replicon cells and compound were incubated for 96 hours. At the end of the assay, cells were washed free of media and compound, and the cells were then lysed. RNA was quantified indirectly through detection of replicon-encoded NS3/4A protein levels, through an ELISA-based assay with an antibody specific for NS3/4A. IC50 determinations were calculated as a percentage of a DMSO control by fitting the data to a four-parameter fit function and the data obtained is provided in the table below.

Row | Structure (SMILES) | IC50 [nM]
1 | CNC(=O)c1c(-c2ccc(F)cc2)oc2cc(N(C)S(C)(=O)=O)c(-c3cccc(-c4cc5cc(F)ccc5[nH]4)c3)cc12 [Compound 367] | 3.9
2 | CNC(=O)c1c(-c2ccc(F)cc2)oc2cc(N(C)S(C)(=O)=O)c(-c3cccc(-c4cc5ncccc5[nH]4)c3)cc12 [Compound 368] | 1.6
3 | CNC(=O)c1c(-c2ccc(F)cc2)oc2cc(N(C)S(C)(=O)=O)c(-c3cccc(-c4cc5cccnc5[nH]4)c3)cc12 [Compound 369] | 2.7
4 | CNC(=O)c1c(-c2ccc(F)cc2)oc2cc(N(C)S(C)(=O)=O)c(-c3cccc(-c4[nH]c5ccccc5c4C)c3)cc12 [Compound 370] | 8.8
5 | CNC(=O)c1c(-c2ccc(F)cc2)oc2cc(N(C)S(C)(=O)=O)c(-c3cccc(-c4cc5cccc(Cl)c5[nH]4)c3)cc12 [Compound 371] | 5.8
6 | CNC(=O)c1c(-c2ccc(F)cc2)oc2cc(N(C)S(C)(=O)=O)c(-c3cc(F)cc(-c4cc5ccccc5[nH]4)c3)cc12 [Compound 372] | 13
7 | CNC(=O)c1c(-c2ccc(F)cc2)oc2cc(N(C)S(C)(=O)=O)c(-c3ccc(OC)c(-c4cc5ccccc5[nH]4)c3)cc12 [Compound 373] | 3.9
8 | CNC(=O)c1c(-c2ccc(F)cc2)oc2cc(N(C)S(C)(=O)=O)c(-c3ccc(OC)c(-c4cc5cccc(F)c5[nH]4)c3)cc12 [Compound 374] | 52.4
9 | CNC(=O)c1c(-c2ccc(F)cc2)oc2cc(N(C)S(C)(=O)=O)c(-c3cc(OC)cc(-c4cc5ccccc5[nH]4)c3)cc12 [Compound 375] | 2.7
10 | CNC(=O)c1c(-c2cccc(-c3cc4c(C(=O)NC)c(-c5ccc(F)cc5)oc4cc3N(C)S(C)(=O)=O)c2)[nH]c2ccccc12 [Compound 377] | 1.2
11 | CNC(=O)c1c(-c2ccc(F)cc2)oc2cc(N(C)S(C)(=O)=O)c(-c3cc(OC)cc(-c4cc5cccnc5[nH]4)c3)cc12 [Compound 378] | 1.8
12 | CNC(=O)c1c(-c2ccc(F)cc2)oc2cc(N(C)S(C)(=O)=O)c(-c3ccc(F)c(-c4cc5cccnc5[nH]4)c3)cc12 [Compound 380] | 1.2
13 | CNC(=O)c1c(-c2ccc(F)cc2)oc2cc(N(CCO)S(C)(=O)=O)c(-c3cc(F)cc(-c4nc5ncccc5o4)c3)cc12 [Compound 386] | 1.3
14 | CNC(=O)c1c(-c2ccc(F)cc2)oc2cc(N(CCO)S(C)(=O)=O)c(-c3ccc(OC)c(-c4nc5ncccc5o4)c3)cc12 [Compound 387] | 2.3
15 | CNC(=O)c1c(-c2ccc(F)cc2)oc2cc(N(CCCCO)S(C)(=O)=O)c(-c3cccc(-c4nc5ncccc5o4)c3)cc12 [Compound 391] | 2.4
16 | CNC(=O)c1c(-c2ccc(F)cc2)oc2cc(N(CCCC#N)S(C)(=O)=O)c(-c3cccc(-c4nc5ncccc5o4)c3)cc12 [Compound 393] | 1.2
17 | CNC(=O)c1c(-c2ccc(F)cc2)oc2cc(N(CCCCC#N)S(C)(=O)=O)c(-c3cccc(-c4nc5ncccc5o4)c3)cc12 [Compound 394] | 1.4
18 | CNC(=O)c1c(-c2ccc(F)cc2)oc2cc(N(CCCNC(=O)OC(C)(C)C)S(C)(=O)=O)c(-c3cccc(-c4nc5ncccc5o4)c3)cc12 [Compound 395] | 8.2

Row | Structure (SMILES) | IC50 [nM]
19 | CNC(=O)c1c(-c2ccc(F)cc2)oc2cc(N(CCCN)S(C)(=O)=O)c(-c3cccc(-c4nc5ncccc5o4)c3)cc12 [Compound 396] | 18.2
20 | CNC(=O)c1c(-c2ccc(F)cc2)oc2cc(N(CCN(C)C)S(C)(=O)=O)c(-c3cccc(-c4nc5ncccc5o4)c3)cc12 [Compound 398] | 2.4
21 | CNC(=O)c1c(-c2ccc(F)cc2)oc2cc(N(CCCN(C)C)S(C)(=O)=O)c(-c3cccc(-c4nc5ncccc5o4)c3)cc12 [Compound 399] | 2.8
22 | CCS(=O)(=O)N(C)c1cc2oc(-c3ccc(F)cc3)c(C(=O)NC)c2cc1-c1cccc(-c2nc3ncccc3o2)c1 [Compound 401] | 1.8
23 | CNC(=O)c1c(-c2ccc(F)cc2)oc2cc(N(C)S(C)(=O)=O)c(-c3ccccc3)cc12 [Example 1, 2-(4-fluorophenyl)-N-methyl-6-[methyl(methylsulfonyl)amino]-5-phenyl-1-benzofuran-3-carboxamide] | 120
24 | CNC(=O)c1c(-c2ccc(F)cc2)oc2cc(N(CCO)S(C)(=O)=O)c(-c3ccccc3)cc12 [Example 2, 2-(4-fluorophenyl)-6-[(2-hydroxyethyl) (methylsulfonyl)amino]-N-methyl-5-phenyl-1-benzofuran-3-carboxamide] | 114
25 | CNC(=O)c1c(-c2ccc(F)cc2)oc2cc(N(CCN(C)c3ccccc3)S(C)(=O)=O)c(-c3ccccc3)cc12 [Example 3, 2-(4-fluorophenyl)-N-methyl-6-[{2-[methyl(phenyl)amino]ethyl} (methylsulfonyl)amino]-5-phenyl-1-benzofuran-3-carboxamide] | 80
26 | CNC(=O)c1c(-c2ccc(F)cc2)oc2cc(N(C(C)c3ccccc3)S(C)(=O)=O)c(-c3ccccc3)cc12 (stereo not drawn) [Example 4, 2-(4-fluorophenyl)-N-methyl-6-[(methylsulfonyl) (1-phenylethyl)amino]-5-phenyl-1-benzofuran-3-carboxamide] | 703
27 | CCN(c1cc2oc(-c3ccc(F)cc3)c(C(=O)NC)c2cc1-c1ccccc1)S(C)(=O)=O [Example 5, 6-[ethyl (methylsulfonyl)amino]-2-(4-fluorophenyl)-N-methyl-5-phenyl-1-benzofuran-3-carboxamide] | 47
28 | CNC(=O)c1c(-c2ccc(F)cc2)oc2cc(N(CCCc3ccccc3)S(C)(=O)=O)c(-c3ccccc3)cc12 [Example 6, 2-(4-fluorophenyl)-N-methyl-6-[(methylsulfonyl) (3-phenylpropyl)amino]-5-phenyl-1-benzofuran-3-carboxamide] | 118
29 | CONC(=O)c1c(-c2ccc(F)cc2)oc2cc(N(CCN(C)c3ccccc3)S(C)(=O)=O)c(-c3ccccc3)cc12 [Example 8, 2-(4-fluorophenyl)-N-methoxy-6-[{2-[methyl(phenyl)amino]ethyl} (methylsulfonyl)amino]-5-phenyl-1-benzofuran-3-carboxamide] | 276
30 | CCN(c1cc2oc(-c3ccc(F)cc3)c(C(=O)NOC)c2cc1-c1ccccc1)S(C)(=O)=O [Example 9, 6-[ethyl (methylsulfonyl)amino]-2-(4-fluorophenyl)-N-methoxy-5-phenyl-1-benzofuran-3-carboxamide] | 99
31 | CONC(=O)c1c(-c2ccc(F)cc2)oc2cc(N(CCCc3ccccc3)S(C)(=O)=O)c(-c3ccccc3)cc12 [Example 10, 2-(4-fluorophenyl)-N-methoxy-6-[(methylsulfonyl) (3-phenylpropyl)amino]-5-phenyl-1-benzofuran-3-carboxamide] | 221
32 | CNC(=O)c1c(-c2ccc(F)cc2)oc2cc(N(CC3CCCCC3)S(C)(=O)=O)c(-c3ccccc3)cc12 [Example 13, 6-[(cyclohexylmethyl)(methylsulfonyl)amino]-2-(4-fluorophenyl)-N-methyl-5-phenyl-1-benzofuran-3-carboxamide] | 84
33 | CNC(=O)c1c(-c2ccc(F)cc2)oc2cc(N(CC(C)C)S(C)(=O)=O)c(-c3ccccc3)cc12 [Example 16, 2-(4-fluorophenyl)-N-methyl-6-[(2-methylpropyl) (methylsulfonyl)amino]-5-phenyl-1-benzofuran-3-carboxamide] | 68
34 | CCCCN(c1cc2oc(-c3ccc(F)cc3)c(C(=O)NC)c2cc1-c1ccccc1)S(C)(=O)=O [Example 17, 6-[butyl (methylsulfonyl)amino]-2-(4-fluorophenyl)-N-methyl-5-phenyl-1-benzofuran-3-carboxamide] | 48
35 | CNC(=O)c1c(-c2ccc(F)cc2)oc2cc(N(CCC(C)C)S(C)(=O)=O)c(-c3ccccc3)cc12 [Example 18, 2-(4-fluorophenyl)-N-methyl-6-[(3-methylbutyl) (methylsulfonyl)amino]-5-phenyl-1-benzofuran-3-carboxamide] | 41
36 | CCC(C)CN(c1cc2oc(-c3ccc(F)cc3)c(C(=O)NC)c2cc1-c1ccccc1)S(C)(=O)=O (stereo not drawn) [Example 19, 2-(4-fluorophenyl)-N-methyl-6-[(2-methylbutyl) (methylsulfonyl)amino]-5-phenyl-1-benzofuran-3-carboxamide] | 227
